Test results: ChEMBL document CHEMBL4340519, “The effects of Arctigenin-Valine ester on chemotherapy-induced myelosuppression in mice” (Bioorg Med Chem, 2019)
Calls of active or inactive are those of the source. The rule behind the calls is not given here.

Assays:
Mus musculus [1] = experiment: Protection against CTX-induced toxicity in BALB/c mouse assessed as restoration of normal body weight at 5 to 10 mg/kg, ip administered daily for 7 days starting from 3 days post-CTX challenge and measured during compound dosing; type: functional, organism-based
Mus musculus [2] = experiment: Protection against CTX-induced myelosuppression in BALB/c mouse assessed as improvement in hematopoiesis by measuring increase in colonies of granulocyte macrophage at 5 to 10 mg/kg, ip administered daily for 7 days starting from 3 days post-CTX challenge measured 24 hrs post-last dose by inverted microscopic method; type: functional, organism-based
Mus musculus [3] = experiment: Protection against CTX-induced toxicity in BALB/c mouse assessed as loss of diarrhea at 5 to 10 mg/kg, ip administered daily for 7 days starting from 3 days post-CTX challenge and measured during compound dosing; type: functional, organism-based
Mus musculus [4] = experiment: Protection against CTX-induced myelosuppression in BALB/c mouse assessed as upregulation of phosphorylated ERK expression at 5 to 10 mg/kg, ip administered daily for 7 days starting from 3 days post-CTX challenge measured 24 hrs post-last dose by Western blot analysis; type: functional, organism-based
Mus musculus [5] = experiment: Protection against CTX-induced toxicity in BALB/c mouse assessed as restoration of normal food intake at 5 to 10 mg/kg, ip administered daily for 7 days starting from 3 days post-CTX challenge and measured during compound dosing; type: functional, organism-based
Mus musculus [6] = experiment: Protection against CTX-induced toxicity in BALB/c mouse assessed as loss of cool skin at 5 to 10 mg/kg, ip administered daily for 7 days starting from 3 days post-CTX challenge and measured during compound dosing; type: functional, organism-based
Mus musculus [7] = experiment: Protection against CTX-induced myelosuppression in BALB/c mouse assessed as improvement in hematopoiesis by decrease in thrombopoietin level at 5 to 10 mg/kg, ip administered daily for 7 days starting from 3 days post-CTX challenge measured 24 hrs post-last dose by ELISA; type: functional, organism-based
Mus musculus [8] = experiment: Protection against CTX-induced myelosuppression in BALB/c mouse assessed as change in hematopoietic progenitor cell cycle distribution by increase in accumulation at G2/M-phase at 5 to 10 mg/kg, ip administered daily for 7 days starting from 3 days post-CTX challenge measured 24 hrs post-last dose by propidium iodide staining based flow cytometry; type: functional, organism-based
Mus musculus [9] = experiment: Protection against CTX-induced myelosuppression in BALB/c mouse assessed as improvement in hematopoiesis by measuring increase in colonies of megakaryocytes at 5 to 10 mg/kg, ip administered daily for 7 days starting from 3 days post-CTX challenge measured 24 hrs post-last dose by inverted microscopic method; type: functional, organism-based
[10] = Toxicity in BALB/c mouse assessed as behavioral changes at 5 to 10 mg/kg, ip administered daily for 7 days measured during compound dosing; type: organism-based; details: in vivo, 168 h
[11] = Toxicity in BALB/c mouse assessed as change in appetite at 5 to 10 mg/kg, ip administered daily for 7 days measured during compound dosing; type: organism-based; details: in vivo, 168 h
Mus musculus [12] = experiment: Protection against CTX-induced myelosuppression in BALB/c mouse assessed as effect on RBC level at 5 mg/kg, ip administered daily for 7 days starting from 3 days post-CTX challenge measured 24 hrs post-last dose (reference value: 8.63 +/- 0.68 10^12/L); type: functional
Mus musculus [13] = experiment: Protection against CTX-induced myelosuppression in BALB/c mouse assessed as effect on RBC level at 10 mg/kg, ip administered daily for 7 days starting from 3 days post-CTX challenge measured 24 hrs post-last dose (reference value: 8.63 +/- 0.68 10^12/L); type: functional
Mus musculus [14] = experiment: Protection against CTX-induced myelosuppression in BALB/c mouse assessed as improvement in immunity by measuring spleen index at 5 mg/kg, ip administered daily for 7 days starting from 3 days post-CTX challenge measured 24 hrs post-last dose (reference value: 8.94 +/- […]); type: functional
Mus musculus [15] = experiment: Protection against CTX-induced myelosuppression in BALB/c mouse assessed as improvement in hematopoiesis by decrease in granulocyte macrophage-colony stimulating factor level at 5 to 10 mg/kg, ip administered daily for 7 days starting from 3 days post-CTX challenge measured 24 hrs post-last dose by ELISA; type: functional, organism-based
Mus musculus [16] = experiment: Protection against CTX-induced myelosuppression in BALB/c mouse assessed as effect on HGB level at 10 mg/kg, ip administered daily for 7 days starting from 3 days post-CTX challenge measured 24 hrs post-last dose (reference value: 113.2 +/- 6.66 g/L); type: functional
Mus musculus [17] = experiment: Protection against CTX-induced myelosuppression in BALB/c mouse assessed as change in hematopoietic progenitor cell cycle distribution by increase in accumulation at S-phase at 5 to 10 mg/kg, ip administered daily for 7 days starting from 3 days post-CTX challenge measured 24 hrs post-last dose by propidium iodide staining based flow cytometry; type: functional, organism-based
Mus musculus [18] = experiment: Protection against CTX-induced myelosuppression in BALB/c mouse assessed as improvement in hematopoiesis by measuring increase in colonies of erythroid at 5 to 10 mg/kg, ip administered daily for 7 days starting from 3 days post-CTX challenge measured 24 hrs post-last dose by inverted microscopic method; type: functional, organism-based
[19] = Toxicity in BALB/c mouse assessed as change in body temperature at 5 to 10 mg/kg, ip administered daily for 7 days measured during compound dosing; type: organism-based; details: in vivo, 168 h
Mus musculus [20] = experiment: Protection against CTX-induced myelosuppression in BALB/c mouse assessed as effect on HGB level at 5 mg/kg, ip administered daily for 7 days starting from 3 days post-CTX challenge measured 24 hrs post-last dose (reference value: 113.2 +/- 6.66 g/L); type: functional
Mus musculus [21] = experiment: Protection against CTX-induced toxicity in BALB/c mouse assessed as loss of hematuria at 5 to 10 mg/kg, ip administered daily for 7 days starting from 3 days post-CTX challenge and measured during compound dosing; type: functional, organism-based
Mus musculus [22] = experiment: Protection against CTX-induced myelosuppression in BALB/c mouse assessed as effect on WBC level at 5 mg/kg, ip administered daily for 7 days starting from 3 days post-CTX challenge measured 24 hrs post-last dose (reference value: 10.34 +/- 1.4 10^9/L); type: functional
Mus musculus [23] = experiment: Protection against CTX-induced myelosuppression in BALB/c mouse assessed as effect on WBC level at 10 mg/kg, ip administered daily for 7 days starting from 3 days post-CTX challenge measured 24 hrs post-last dose (reference value: 10.34 +/- 1.4 10^9/L); type: functional
Mus musculus [24] = experiment: Protection against CTX-induced myelosuppression in BALB/c mouse assessed as improvement in hematopoiesis by decrease in erythropoietin level at 5 to 10 mg/kg, ip administered daily for 7 days starting from 3 days post-CTX challenge measured 24 hrs post-last dose by ELISA; type: functional, organism-based
Mus musculus [25] = experiment: Protection against CTX-induced toxicity in BALB/c mouse assessed as loss of depilation at 5 to 10 mg/kg, ip administered daily for 7 days starting from 3 days post-CTX challenge and measured during compound dosing; type: functional, organism-based
Mus musculus [26] = experiment: Protection against CTX-induced myelosuppression in BALB/c mouse assessed as effect on PLT level at 10 mg/kg, ip administered daily for 7 days starting from 3 days post-CTX challenge measured 24 hrs post-last dose (reference value: 628.5 +/- 66.09 10^9/L); type: functional
Mus musculus [27] = experiment: Protection against CTX-induced myelosuppression in BALB/c mouse assessed as change in hematopoietic progenitor cell cycle distribution by decrease in accumulation at G0/G1-phase at 5 to 10 mg/kg, ip administered daily for 7 days starting from 3 days post-CTX challenge measured 24 hrs post-last dose by propidium iodide staining based flow cytometry; type: functional, organism-based
Mus musculus [28] = experiment: Protection against CTX-induced myelosuppression in BALB/c mouse assessed as upregulation of MEK expression at 5 to 10 mg/kg, ip administered daily for 7 days starting from 3 days post-CTX challenge measured 24 hrs post-last dose by Western blot analysis; type: functional, organism-based
Mus musculus [29] = experiment: Protection against CTX-induced myelosuppression in BALB/c mouse assessed as improvement in hematopoiesis by measuring increase in burst forming units of erythroid at 5 to 10 mg/kg, ip administered daily for 7 days starting from 3 days post-CTX challenge measured 24 hrs post-last dose by inverted microscopic method; type: functional, organism-based
[30] = Toxicity in BALB/c mouse assessed as effect on appearance of shiny hair at 5 to 10 mg/kg, ip administered daily for 7 days measured during compound dosing; type: organism-based; details: in vivo, 168 h
Mus musculus [31] = experiment: Protection against CTX-induced myelosuppression in BALB/c mouse assessed as improvement in hematopoiesis by measuring increase in bone marrow nucleated cells at 5 to 10 mg/kg, ip administered daily for 7 days starting from 3 days post-CTX challenge measured 24 hrs post-last dose by inverted microscopic method; type: functional, organism-based
Mus musculus [32] = experiment: Protection against CTX-induced myelosuppression in BALB/c mouse assessed as improvement in immunity by measuring spleen index at 10 mg/kg, ip administered daily for 7 days starting from 3 days post-CTX challenge measured 24 hrs post-last dose (reference value: 8.94 +/- […]); type: functional
Mus musculus [33] = experiment: Protection against CTX-induced myelosuppression in BALB/c mouse assessed as effect on PLT level at 5 mg/kg, ip administered daily for 7 days starting from 3 days post-CTX challenge measured 24 hrs post-last dose (reference value: 628.5 +/- 66.09 10^9/L); type: functional

## COc1ccc(C[C@H]2COC(=O)[C@@H]2Cc2ccc(OC(=O)[C@@H](N)C(C)C)c(OC)c2)cc1OC
Mus musculus [1]
  Activity: Active
Mus musculus [2]
  Activity: Active
Mus musculus [3]
  Activity: Active
Mus musculus [4]
  Activity: Active
Mus musculus [5]
  Activity: Active
Mus musculus [6]
  Activity: Active
Mus musculus [7]
  Activity: Active
Mus musculus [8]
  Activity: Active
Mus musculus [9]
  Activity: Active
[10]
  Activity: Non-Toxic
[11]
  Activity: Non-Toxic
Mus musculus [12]
  Activity: 8.8 ×10¹² /L
Mus musculus [13]
  Activity: 9.24 ×10¹² /L
Mus musculus [14]
  Activity index: 8.66 mg/g
Mus musculus [15]
  Activity: Active
Mus musculus [16]
  Activity: 125.5 g/L
Mus musculus [17]
  Activity: Active
Mus musculus [18]
  Activity: Active
[19]
  Activity: Non-Toxic
Mus musculus [20]
  Activity: 120 g/L
Mus musculus [21]
  Activity: Active
Mus musculus [22]
  Activity: 9.29 ×10⁹ /L
Mus musculus [23]
  Activity: 8.65 ×10⁹ /L
Mus musculus [24]
  Activity: Active
Mus musculus [25]
  Activity: Active
Mus musculus [26]
  Activity: 848 ×10⁹ /L
Mus musculus [27]
  Activity: Active
Mus musculus [28]
  Activity: Active
Mus musculus [29]
  Activity: Active
[30]
  Activity: Non-Toxic
Mus musculus [31]
  Activity: Active
Mus musculus [32]
  Activity index: 8.47 mg/g
Mus musculus [33]
  Activity: 796 ×10⁹ /L
